PubChem BioAssay (NCI)
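Grown in 96-well plates, cells were treated for 48 hours with each compound at five concentrations. Insufficient inhibition: endpoint recorded as highest concentration tested. GI50 marks 50% less growth. At the TGI there is no net growth.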

Tests used:
Experiment in all cases: inhibition of tumour cell growth, NCI panel, 48 h
SF-295 CNS = test system: SF-295 CNS
K-562 leukemia = test system: K-562 leukemia
NCI-H226 lung = test system: NCI-H226 lung
CCRF-CEM leukemia = test system: CCRF-CEM leukemia
HS 578T breast = test system: HS 578T breast
SNB-75 CNS = test system: SNB-75 CNS
U251 CNS = test system: U251 CNS
MDA-MB-231 breast = test system: MDA-MB-231 breast
LOX IMVI melanoma = test system: LOX IMVI melanoma
UACC-257 melanoma = test system: UACC-257 melanoma

Row | SMILES | GI50 (SF-295 CNS) [µM] | TGI (SF-295 CNS) [µM] | GI50 (K-562 leukemia) [µM] | TGI (K-562 leukemia) [µM] | GI50 (NCI-H226 lung) [µM] | TGI (NCI-H226 lung) [µM] | GI50 (CCRF-CEM leukemia) [µM] | TGI (CCRF-CEM leukemia) [µM] | GI50 (HS 578T breast) [µM] | TGI (HS 578T breast) [µM] | GI50 (SNB-75 CNS) [µM] | TGI (SNB-75 CNS) [µM] | GI50 (U251 CNS) [µM] | TGI (U251 CNS) [µM] | GI50 (MDA-MB-231 breast) [µM] | TGI (MDA-MB-231 breast) [µM] | GI50 (LOX IMVI melanoma) [µM] | TGI (LOX IMVI melanoma) [µM] | GI50 (UACC-257 melanoma) [µM] | TGI (UACC-257 melanoma) [µM]
1 | COc1ccc(C(SCC(N)C(=O)O)(c2ccccc2)c2ccccc2)cc1 (centres undefined) | 0.0948 | > 100 | 0.0567 | > 45.8 | 11.8 | > 71.2 | 0.0992 | > 100 | 0.0432 | 3.1 | 0.447 | 88.1 | 0.0497 | > 57 | 0.23 | 4.72 | 0.668 | 25.7 | 26.3 | > 100
2 | O=C1c2ccccc2S(=O)(=O)N1CSC(=S)N1CCCCC1 | > 100 | > 100 | > 94.6 | > 100 | > 100 | > 100 | – | – | > 100 | > 100 | > 100 | > 100 | > 100 | > 100 | > 100 | > 100 | > 100 | > 100 | > 100 | > 100
3 | NC1CCC(Nc2nc(NCc3ccc(-c4cccs4)nc3)c3ncn(C4CCCC4)c3n2)CC1 (centres undefined) | 0.0819 | 0.699 | 0.0397 | 0.777 | 0.131 | 1.31 | 0.0329 | 0.554 | 0.0269 | 2.28 | 0.016 | 0.0588 | 0.0327 | 0.434 | 0.024 | 1.59 | 0.296 | 3.48 | 0.0568 | 0.295
4 | CN(Cc1cc(Br)cc(Br)c1O)Cc1cc(Br)cc(Br)c1O | 0.847 | 11.9 | 0.603 | 20 | 4.75 | 19.8 | 1.31 | > 100 | 5.24 | 47.7 | 12.9 | 49.3 | 0.689 | 13.3 | 3.26 | 19.6 | 1.14 | 17.4 | 2.44 | 11.5
5 | Cc1ccc(-c2cc3c(SCC(=O)Nc4cc(C(F)(F)F)ccc4Cl)nccn3n2)cc1 | > 100 | > 100 | > 100 | > 100 | > 100 | > 100 | – | – | 11.7 | > 100 | 23.5 | > 100 | 3.4 | > 100 | 94.5 | > 100 | > 100 | > 100 | – | –
